{
  "source": "patent US20230104658A1",
  "about": "“METHODS OF INCREASING PROGENITOR CELL PRODUCTION” (Janssen Pharmaceutica NV, priority 2021, published 2023)",
  "key": {"Long-term HSCs": {"system": "Long-term HSCs", "assay": "Flow cytometry of femoral bone marrow, total count/femur: long-term HSCs (Example 1)", "format": "in vivo, mice", "conditions": "only by day 13 after treatment", "experimental": "(§1) In this study, normal male C57BL/6 mice were subcutaneously injected with RWJ-800088 (TPOm) at 300 μg/kg (Day 0). […]\n(§2) […] After, the cell pellet was resuspended in 1X ACK lysing buffer (Lonza, 10-548E) to lyse red blood cells. The suspension was filtered through 70 μm nylon mesh and collected for further analysis.\n(§3) The bone marrow was further processed to isolate single cell populations. Then, the cells from the bone marrow and blood were subjected to flow cytometry to identify various population, including endothelial cells (EC), EPC, arterial EC, sinusoidal EC, lineage-, c-kit+, Sca-1+(LSK), megakaryocyte progenitors, short-term hematopoietic stem cell (ST-HSC), long-term HSC (LT-HSC), mesenchymal stern cell (MSC), LepR+c-mpl+MSC. The portion of blood sample was also subjected to clonogenic assay to validate the EPC population.\n(§4) The cells isolated from the bone marrow and peripheral blood were incubated with\n(§5) Live/Dead Zombie dye (Biolegend) in phosphate-buffered saline (PBS) at room temperature for 15 minutes. After, primary antibodies were diluted in 2% fetal bovine serum (FBS)-PBS solution and incubated with cells on ice for 30 minutes. Cells were washed with 2% FBS-PBS solution and incubated with secondary antibodies for 30 minutes. Cells were washed again and acquired on Cytek Aurora spectral cytometer. Analysis was done through FlowJo (Tree Star) software."}, "LSK": {"system": "LSK", "assay": "Flow cytometry of femoral bone marrow, total count/femur: LSK cells (Example 1)", "format": "in vivo, mice", "conditions": "after treatment for 13 days", "experimental": "as §1\n(§6) Tibias were flushed and digested with 1 mg/mL collagenase IV (Gibco, 17104019) and 2 mg/mL dispase (Gibco, 17105041) in Hank's balanced salt solution (HB SS) (Gibco, 24020117) for a total of 30 minutes at 37° C. with an inversion at 15 minutes. After, the cell pellet was resuspended in 1X ACK lysing buffer (Lonza, 10-548E) to lyse red blood cells. The suspension was filtered through 70 μm nylon mesh and collected for further analysis.\nas §3, §4\n(§7) Live/Dead Zombie dye (Biolegend) in phosphate-buffered saline (PBS) at room temperature for 15 minutes. After, primary antibodies were diluted in 2% fetal bovine serum (FBS)-PBS solution and incubated with cells on ice for 30 minutes. […]"}, "Megakaryocytes": {"system": "Megakaryocytes", "assay": "Histology (H&E) megakaryocyte count in sternal bone marrow of healthy mice after single s.c. dose", "format": "in vivo", "experimental": "as §1\nFurther, hematopoietic stem and progenitor cell (HSPC) populations in the femoral marrow were examined by flow cytometry (FIG. 2)."}, "[1]": {"system": "Endothelial progenitor cells (EPCs)", "assay": "Flow cytometry of bone marrow ten days after treatment: EPCs (Example 2)", "format": "in vivo, mice", "conditions": "10 days after 300 μg/kg s.c.; percentage of CD45- cells", "experimental": "(§8) In this study, male C57BL/6 mice (8-10 weeks old) from Jackson Laboratory (Bar Harbor, Me.) were subcutaneously injected with RWJ-800088 (TPOm) at 300 μg/kg or PBS (vehicle). At day 10 after RWJ-800088 injection, the mice were sacrificed to harvest bone marrow and peripheral blood. Another set of groups was intraperitoneally injected with 5 mg/kg of plerixafor (also named AMD3100) from Sigma-Aldrich 1 hour before the sacrifice. The bone marrow was further processed to isolate single cell populations. Then, the cells from bone marrow and blood were subjected to flow cytometry to identify various populations. Bone Marrow Cell Collection\nas §6, with “(HBSS; Gibco,” for “(HB SS) (Gibco,”, “After,” for “After, the”, “lx” for “1X”, “100” for “70”\n(§9) The cells isolated from the bone marrow and peripheral blood were incubated with Live/Dead Zombie dye (Biolegend) in PBS at room temperature for 15 minutes. After, primary antibodies were diluted in 2% FBS-PBS solution and incubated with cells on ice for 30 minutes. […]"}, "[2]": {"system": "Myeloid progenitor cells (MPC)", "assay": "Flow cytometry of femoral bone marrow, total count/femur: myeloid progenitor cells (Example 1)", "format": "in vivo, mice", "experimental": "as §1, §2, §3, §4, §5"}, "Endothelial cells (EC)": {"system": "Endothelial cells (EC)", "assay": "Flow cytometry of femoral bone marrow, total count/femur: CD31+ endothelial cells (Example 1)", "format": "in vivo, mice", "conditions": "days 3 to 13 after 300 μg/kg s.c.", "experimental": "In this study, normal male C57BL/6 mice were subcutaneously injected with RWJ-800088 (TPOm) at 300 μg/kg (Day 0). At days 3, 7, 10 and 14, the mice were sacrificed to collect the bone marrow and blood samples.\nas §2, §3, §4\nLive/Dead Zombie dye (Biolegend) in phosphate-buffered saline (PBS) at room temperature for 15 minutes. After, primary antibodies were diluted in 2% fetal bovine serum (FBS)-PBS solution and incubated with cells on ice for 30 minutes. Cells were washed with 2% FBS-PBS solution and incubated with secondary antibodies for 30 minutes. […]"}, "[3]": {"system": "hemopoietic stem cells (HSCs)", "assay": "Flow cytometry of bone marrow ten days after treatment: HSCs (Example 2)", "format": "in vivo, mice", "conditions": "ten days after 300 μg/kg s.c.; percentage of CD45- cells", "experimental": "as §8\nas §6, with “(HBSS; Gibco,” for “(HB SS) (Gibco,”, “After,” for “After, the”, “lx” for “1X”, “100” for “70”\nas §9"}, "[4]": {"system": "Endothelial progenitor cells (EPC)", "assay": "Flow cytometry of femoral bone marrow, total count/femur: endothelial progenitor cells (Example 1)", "format": "in vivo, mice", "conditions": "days 3 to 13 after 300 μg/kg s.c.", "experimental": "as §1, §6, §3, §4, §7"}, "Short-term HSCs": {"system": "Short-term HSCs", "assay": "Flow cytometry of femoral bone marrow, total count/femur: short-term HSCs (Example 1)", "format": "in vivo, mice", "conditions": "after treatment for 13 days", "experimental": "as §1, §2, §3, §4, §5"}, "[5]": {"system": "myeloid progenitor cells (MPCs)", "assay": "Flow cytometry of bone marrow ten days after treatment: MPCs (Example 2)", "format": "in vivo, mice", "conditions": "ten days after 300 μg/kg s.c.; percentage of CD45- cells", "experimental": "as §8\nas §6, with “(HBSS; Gibco,” for “(HB SS) (Gibco,”, “After,” for “After, the”, “lx” for “1X”, “100” for “70”\nas §9"}},
  "note": "Square brackets hold non-standard residues; d marks the D form. 2Nal = N[C@@H](Cc1ccc2ccccc2c1)C(=O)O; Sar = CNCC(=O)O",
  "data": [
    {"substance": "methoxypolyethyleneglyco120000-propionyl-L-Isoleucyl-L-Glutamyl-Glycyl-L-Prolyl-L-Threonyl-L-Leucyl-L-Arginyl-L-Glutaminyl-L-2-Naphthylalanyl-L-Leucyl-L-Alanyl-L-Alanyl-L-Arginyl-Sarcosyl-Ne-(methoxypolyethyleneglyco120000-propionyl-L-Isoleucyl-L-Glutamyl-Glycyl-L-Prolyl-L-Threonyl-L-Leucyl-L-Arginyl-L-Glutaminyl-L-2-Naphthylalanyl-L-Leucyl-L-Alanyl-L-Alanyl-L-Arginyl-Sarcosyl-)-Lysinamide ({methoxypolyethyleneglycol 20000‑propionyl}-IEGPTLRQ[2Nal]LAAR[Sar]K-NH2; also: dimer: second identical mPEG20000-propionyl-peptide-Sar arm on C-terminal Lys Ne) [RWJ-800088]", "values": [
      {"measurement": "LSK, CD34-, CD48-, CD150+ long-term (LT-) HSCs in femoral marrow", "setting": "Long-term HSCs", "value": "significantly increased"},
      {"measurement": "LSK (lineage-, c-kit+, Sca-1+) population in femoral marrow", "setting": "LSK", "value": "significantly increased"},
      {"measurement": "Number of megakaryocytes in sternal marrow", "setting": "Megakaryocytes; 13 days after treatment, 300 μg/kg s.c.", "value": "dropped down to baseline"},
      {"measurement": "Megakaryocytes in sternal marrow relative to naive animals", "setting": "Megakaryocytes; days 3 and 6 after 300 μg/kg s.c.", "value": "significant increases"},
      {"measurement": "EPC populations in the bone marrow", "setting": "[1]", "value": "significant increase"},
      {"measurement": "Myeloid progenitor cells (lineage-, c-kit+) in femoral marrow relative to naive", "setting": "[2]; day 3 after treatment", "value": "significant increases"},
      {"measurement": "Myeloid progenitor cells (lineage-, c-kit+) in femoral marrow", "setting": "[2]; day 6 after treatment", "value": "significant decrease"},
      {"measurement": "Myeloid progenitor cells (lineage-, c-kit+) in femoral marrow", "setting": "[2]; day 13 after treatment", "value": "return to baseline"},
      {"measurement": "EC (CD31+) population in femoral marrow, time course", "setting": "Endothelial cells (EC)", "value": "increased beginning on day 3 and was sustained through day 13"},
      {"measurement": "HSC population in the bone marrow compartment", "setting": "[3]", "value": "increases"},
      {"measurement": "EPC population in femoral marrow, time course", "setting": "[4]", "value": "began increasing on day 3 with a peak on day 6"},
      {"measurement": "LSK, CD34+ short-term (ST-) HSC population in femoral marrow", "setting": "Short-term HSCs", "value": "significantly increased"},
      {"measurement": "MPC population in the bone marrow compartment", "setting": "[5]", "value": "increases"}
    ]}
  ]
}
